The IC50 is the point on the concentration scale where inhibition reaches its midpoint.

One experiment has as its system gastric acid secretion in gastric fistula beagle dogs. Nature of the experiment: Inhibition of Gastric Acid Secretion in Gastric Fistula Beagle Dogs. Type of experiment: in vivo. As to conditions: 3 mg/kg dose; i.d. (intraduodenal); histamine-stimulated secretion, four-hour period.
Consider `Cc1cn2cccc(C[S+]([O-])c3nc4ccccc4[nH]3)c2n1` (centres unmarked) [Example 5], for which the “Gastric-Fistula Beagle % Inhibition” value is given as 16%.
Regarding `[O-][S+](Cc1cccn2ccnc12)c1nc2ccccc2[nH]1` (centres unmarked) [Example 3, 2-[(imidazo[1,2-a]pyridin-8-ylmethyl)sulfinyl]-1H-benzimidazole 1/8 hydrate], the “Gastric-Fistula Beagle % Inhibition” value is on record as 57%.

In a further experiment the target is T1, (H^+ +K^+)-ATPase (Canis lupus familiaris, UniProt P50996).
T1 construct: (H^+ +K^+)-ATPase obtained from canine gastric mucosa; from tissue; host or cells: glandular gastric mucosa of mongrel dogs (antral and cardiac regions removed), microsomes from the 15%-30% sucrose interface, lyophilized
T1 sequence (P50996 2-1034 limits assumed): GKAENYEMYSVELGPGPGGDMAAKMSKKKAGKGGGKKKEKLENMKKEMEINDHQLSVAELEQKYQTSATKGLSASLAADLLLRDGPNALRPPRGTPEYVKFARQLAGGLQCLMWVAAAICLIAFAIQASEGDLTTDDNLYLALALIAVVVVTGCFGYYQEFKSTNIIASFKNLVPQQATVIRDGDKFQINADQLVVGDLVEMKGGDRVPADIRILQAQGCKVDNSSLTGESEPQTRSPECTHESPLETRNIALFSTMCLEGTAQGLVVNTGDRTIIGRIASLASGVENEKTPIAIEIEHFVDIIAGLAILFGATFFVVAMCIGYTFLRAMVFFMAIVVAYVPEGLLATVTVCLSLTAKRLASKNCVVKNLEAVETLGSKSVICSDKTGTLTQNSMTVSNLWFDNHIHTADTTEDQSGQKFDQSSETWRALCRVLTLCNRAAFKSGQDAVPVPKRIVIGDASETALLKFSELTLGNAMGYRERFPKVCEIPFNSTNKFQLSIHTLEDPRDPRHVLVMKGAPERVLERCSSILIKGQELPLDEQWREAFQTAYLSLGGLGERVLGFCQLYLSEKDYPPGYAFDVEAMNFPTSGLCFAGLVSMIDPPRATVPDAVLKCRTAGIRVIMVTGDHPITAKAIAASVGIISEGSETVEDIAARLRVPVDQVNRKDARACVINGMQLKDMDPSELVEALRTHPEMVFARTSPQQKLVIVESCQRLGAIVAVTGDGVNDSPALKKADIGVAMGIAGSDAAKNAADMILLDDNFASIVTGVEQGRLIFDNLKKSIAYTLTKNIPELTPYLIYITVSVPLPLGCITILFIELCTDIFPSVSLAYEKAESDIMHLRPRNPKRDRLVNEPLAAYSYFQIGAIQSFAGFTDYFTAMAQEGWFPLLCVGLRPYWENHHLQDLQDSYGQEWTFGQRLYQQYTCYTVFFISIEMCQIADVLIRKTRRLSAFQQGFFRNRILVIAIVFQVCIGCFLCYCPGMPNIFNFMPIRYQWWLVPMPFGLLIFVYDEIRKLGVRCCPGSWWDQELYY
T1 sequence (P33704 whole entry partner): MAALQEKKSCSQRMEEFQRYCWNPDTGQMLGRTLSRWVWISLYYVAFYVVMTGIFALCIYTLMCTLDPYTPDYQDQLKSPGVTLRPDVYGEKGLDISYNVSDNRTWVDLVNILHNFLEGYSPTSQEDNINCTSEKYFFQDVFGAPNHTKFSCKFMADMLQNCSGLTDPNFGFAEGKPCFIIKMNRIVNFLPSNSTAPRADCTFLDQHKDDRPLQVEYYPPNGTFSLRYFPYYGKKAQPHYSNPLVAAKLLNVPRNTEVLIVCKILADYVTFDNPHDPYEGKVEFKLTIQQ
Nature of the experiment: Inhibition of (H^+ +K^+)-ATPase from Canine Gastric Mucosa. As to conditions: canine gastric mucosa microsomes; pH 6.0; 30 min preincubation with compound at 37°; K^+-stimulated minus basal activity. Type of experiment: biochemical, canine (mongrel dogs). As for the experimental part:
Inhibition of (H^+ +K^+)-ATPase from Canine Gastric Mucosa
Mongrel dogs weighing 15 to 25 kilograms were fasted for twenty-four hours, with water provided ad libitum. The animals were anesthetized with pentobarbital and the stomachs were removed. Subsequent tissue manipulations and subcellular fractionations were performed at 0° to 4° C. After the stomachs were cut open and rinsed with tap water, the antral and cardiac regions were removed and the remaining tissue was rinsed three times in saline. The glandular mucosa was removed mechanically, chopped finely in a medium containing 10 mM Tris hydrochloride (pH 7.4) and 250 mM sucrose, and homogenized. The homogenate was centrifuged at 20,000×g for twenty minutes and the pellet discarded. The supernatant was then centrifuged at 150,000×g for ninety minutes and the supernatant discarded. The pellet was resuspended in the Tris-HCl/sucrose medium by homogenization. Part (2 ml) of the resultant microsomal suspension was layered onto a step gradient consisting of 9 ml of 15% sucrose above 12 ml of 30% sucrose, each sucrose solution being buffered with 10 mM Tris hydrochloride (pH 7.4) containing 0.01% sodium azide. The microsomes retained at the 15%-30% sucrose interface, after centrifugation at 250,000×g for sixty minutes, were used as the source of (H^+ +K^+)-ATPase. Microsomal preparations were lyophilized, a process that assured potassium ion permiability, and stored at -10° until used.
(H^+ K^+)-ATPase activity for each test compound was determined, in duplicate, by measuring the release of inorganic phosphate, which was assayed according to the method of J. ChandraRajan and L. Klein. Anal. Biochem., 72, 407-412 (1976). The (H^+ +K^+)-ATPase assay medium consisted of 20 mM Mes-Tris (pH 6.0), 5 mM magnesium chloride, 25 mM sucrose, and 4 mM Tris-ATP with or without 20 mM potassium chloride in a total volume of 2 ml. Microsomal suspensions (20 to 60 mcl, containing about 25 mcg protein) were added to the assay medium, without Tris-ATP, and then preincubated with a test compound for thirty minutes at 37°. The assay was initiated by adding Tris-ATP and the mixture was incubated another thirty minutes at 37°. A 200-mcl aliquot of the assay mixture was then added to 1.4 ml of a solution consisting of 0.1M sodium acetate (pH 4.0) and 10 % sodium dodecylsulfate, followed by the addition of 200 mcl each of 1% ammonium molybdate and 1% ascorbic acid. At least fifteen minutes later, the optical absorbance at 870 nm (which was proportional to inorganic phosphate concentration up to 100 nmoles per tube, as determined by a standard curve) was obtained. Enzyme activity was linear with incubation time.
(H^+ +K^+)-ATPase activity is represented by the difference between the measured activities in the presence of potassium ion (K^+ -stimulated) and in the absence of potassium ion (basal). […] If the IC50 for a test compound could not be determined for the concentration range tested, percent inhibition of (H^+ +K^+)-ATPase was obtained for the compound at 0.1 mM.
Take `[O-][S+](Cc1cccn2ccnc12)c1nc2cc(C(F)(F)F)ccc2[nH]1` (centres unmarked) [Example 21, 2-[(imidazo[1,2-a]pyridin-8-ylmethyl)sulfinyl]-5-(trifluoromethyl)-1H-benzimidazole]: the IC50 stood at 3.4 µM.
Same read-out and setting: in the case of `[O-][S+](Cc1cccc2nccn12)c1nc2ccccc2[nH]1` (centres unmarked) [Example 56, 2-[(imidazo[1,2-a]pyridin-5-ylmethyl)sulfinyl]-1H-benzimidazole] it was greater than 100 µM; in that of `Cc1cn2cccc(C[S+]([O-])c3nc4ccccc4[nH]3)c2n1` (centres unmarked) [Example 5], 6.7 µM; in that of `[O-][S+](Cc1cccn2c(-c3ccc(C(F)(F)F)cc3)cnc12)c1nc2cc(Cl)ccc2[nH]1` (centres unmarked) [Example 47, 5-chloro-2-[[[3-[4-(trifluoromethyl)phenyl]imidazo[1,2-a]pyridin-8-yl]methyl]sulfinyl]-1H-benzimidazole], 13 µM.
As to `COc1cc2nc([S+]([O-])Cc3cccn4ccnc34)[nH]c2cc1OC` (centres unmarked) [Example 17, 2-[(imidazo[1,2-a]pyridin-8-ylmethyl)sulfinyl]-5,6-dimethoxy-1H-benzimidazole], the IC50 was 69 µM.
Regarding `[O-][S+](Cc1cccn2ccnc12)c1nc2ccccc2[nH]1` (centres unmarked) [Example 3, 2-[(imidazo[1,2-a]pyridin-8-ylmethyl)sulfinyl]-1H-benzimidazole 1/8 hydrate], the 50% inhibitory concentration (IC50) is 2.7 µM.
On the same count and under the same terms, in the case of `[O-][S+](Cc1cccn2cc(-c3ccccc3)nc12)c1nc2ccccc2[nH]1` (centres unmarked) [Example 28, 2-[[(2-phenylimidazo[1,2-a]pyridin-8-yl)methyl]sulfinyl]-1H-benzimidazole 1/4 hydrate] it was greater than 100 µM; in that of `Cc1ccc2[nH]c([S+]([O-])Cc3cccn4c(-c5cccc(C(F)(F)F)c5)cnc34)nc2c1` (centres unmarked) [Example 39, 5-methyl-2-[[[3-[3-(trifluoromethyl)phenyl]imidazo[1,2-a]pyridin-8-yl]methyl]sulfinyl]-1H-benzimidazole], 7.2 µM; in that of `Cc1cc2nc([S+]([O-])Cc3cccn4ccnc34)[nH]c2cc1C` (centres unmarked) [Example 15, 2-[(imidazo[1,2-a]pyridin-8-ylmethyl)sulfinyl]-5,6-dimethyl-1H-benzimidazole hydrate], 4.8 µM.
Regarding `CCOc1ccc2[nH]c([S+]([O-])Cc3cccn4ccnc34)nc2c1` (centres unmarked) [Example 9, 5-ethoxy-2-[(imidazo[1,2-a]pyridin-8-ylmethyl)sulfinyl]-1H-benzimidazole], the IC50 worked out at 9.2 µM.
Regarding `O=[N+]([O-])c1ccc(-c2cnc3c(C[S+]([O-])c4nc5ccccc5[nH]4)cccn23)cc1` (centres unmarked) [Example 33, 2-[[[3-(4-nitrophenyl)imidazo[1,2-a]pyridin-8-yl]methyl]sulfinyl]-1H-benzimidazole 1/4 hydrate], the IC50 worked out at 17.5 µM.
On to `Cc1cccc2[nH]c([S+]([O-])Cc3cccn4ccnc34)nc12` (centres unmarked) [Example 11, 2-[(imidazo[1,2-a]pyridin-8-ylmethyl)sulfinyl]-4-methyl-1H-benzimidazole], for which the IC50 stood at 6.2 µM.
Still for that read-out and setting: in the case of `Cc1ccc2[nH]c([S+]([O-])Cc3cccn4ccnc34)nc2c1` (centres unmarked) [Example 13, 2-[(imidazo[1,2-a]pyridin-8-ylmethyl)sulfinyl]-5-methyl-1H-benzimidazole] it was 3.1 µM; in that of `[O-][S+](Cc1cccn2c(-c3cccc(C(F)(F)F)c3)cnc12)c1nc2cc(Cl)ccc2[nH]1` (centres unmarked) [Example 42, 5-chloro-2-[[[3-[3-(trifluoromethyl)phenyl]imidazo[1,2-a]pyridin-8-yl]methyl]sulfinyl]-1H-benzimidazole], 15.2 µM.
Same read-out and setting: in the case of `Cc1ccc(-c2cnc3c(C[S+]([O-])c4nc5ccccc5[nH]4)cccn23)cc1` (centres unmarked) [Example 54, 2-[[[3-(4-methylphenyl)imidazo[1,2-a]pyridin-8-yl]methyl]sulfinyl]-1H-benzimidazole] it was 3.2 µM; in that of `COc1ccc2[nH]c([S+]([O-])Cc3cccn4ccnc34)nc2c1` (centres unmarked) [Example 7, 2-[(imidazo[1,2-a]pyridin-8-ylmethyl)sulfinyl]-5-methoxy-1H-benzimidazole], 8.5 µM; in that of `[O-][S+](Cc1cccn2ccnc12)c1nc2cc(Cl)ccc2[nH]1` (centres unmarked) [Example 19, 5-chloro-2-[(imidazo[1,2-a]pyridin-8-ylmethyl)sulfinyl]-1H-benzimidazole], 5 µM.
As for `COC(=O)c1ccc(-c2cnc3c(C[S+]([O-])c4nc5ccccc5[nH]4)cccn23)cc1` (centres unmarked) [Example 49, methyl 4-[8-[(1H-benzimidazol-2-ylsulfinyl)methyl]imidazo[1,2-a]pyridin-3-yl]benzoate hydrate], the IC50 was 7.8 µM.
As for `Cc1nc2c(C[S+]([O-])c3nc4ccccc4[nH]3)cccn2c1C` (centres unmarked) [Example 23, 2-[[(2,3-dimethylimidazo[1,2-a]pyridin-8-yl)methyl]sulfinyl]-1H-benzimidazole], the IC50 was determined as 6.2 µM.
As for `[O-][S+](Cc1cccn2c(-c3ccc(C(F)(F)F)cc3)cnc12)c1nc2ccccc2[nH]1` (centres unmarked) [Example 45, 2-[[[3-[4-(trifluoromethyl)phenyl]imidazo[1,2-a]pyridin-8-yl]methyl]sulfinyl]-1H-benzimidazole], the IC50 is 7.4 µM.
As to `[O-][S+](Cc1cccn2c(-c3ccccc3)cnc12)c1nc2ccccc2[nH]1` (centres unmarked) [Example 30, 2-[[(3-phenylimidazo[1,2-a]pyridin-8-yl)methyl]sulfinyl]-1H-benzimidazole hemihydrate], the IC50 came to 9.1 µM.
Regarding `Cc1cnc2c(C[S+]([O-])c3nc4ccccc4[nH]3)cccn12` (centres unmarked) [Example 25, 2-[[(3-methylimidazo[1,2-a]pyridin-8-yl)methyl]sulfinyl]-1H-benzimidazole hemihydrate1/2CH2 Cl2], the IC50 was found to be 4 µM.
Still for that read-out and setting: in the case of `[O-][S+](Cc1cccn2c(-c3cccc(C(F)(F)F)c3)cnc12)c1nc2ccccc2[nH]1` (centres unmarked) [Example 36, 2-[[[3-[3-(trifluoromethyl)phenyl]imidazo[1,2-a]pyridin-8-yl]methyl]sulfinyl]-1H-benzimidazole] it was 6.9 µM.
In the case of `[O-][S+](Cc1cccn2c(-c3ccc(Cl)cc3)cnc12)c1nc2ccccc2[nH]1` (centres unmarked) [Example 52, 2-[[[3-(4-chlorophenyl)imidazo[1,2-a]pyridin-8-yl]methyl]sulfinyl]-1H-benzimidazole], the IC50 is 5.5 µM.

Values taken from patent US4687775A, “2-[(Imidazo[1,2-a]pyridinylmethyl)sulfinyl]-1H-benzimidazoles” (G. D. Searle & Co., priority 1986, dated 1987).
